Data reported in patent US12679878B2, “CRF2 receptor agonists and their use in therapy” (SANOFI, priority 2020, dated 2026).
≈ marks a conversion by molar mass, not a printed value. Like-named read-outs stand apart in the source and are kept apart here. Starred links: 1 amine or outer side, 2 acyl side, 3 side chain; linkers in the order of their positions; H or OH if unused. Non-standard residues stand in square brackets, D forms with d. Residues, ends and D or L forms follow the SMILES beside them. Groups on a side chain read outwards from the residue. *: point of attachment. C20 diacid = O=C(O)CCCCCCCCCCCCCCCCCCC(=O)*; C18 diacid = O=C(O)CCCCCCCCCCCCCCCCC(=O)*; γGlu = O=C(O)[C@H](CCC(=O)[*:2])N[*:1]; Palmitoyl = CCCCCCCCCCCCCCCC(=O)*; AEEA = NCCOCCOCC(=O)O; Aib = CC(C)(N)C(=O)O

What was measured:
[1] = target: T1, CRF2R (Homo sapiens, UniProt Q13324); experiment: EC50 [nM] CRF2R
T1 construct: expressed in transfected cells; host or cells: TeloHEAC
Excerpt: (§1) Table printed on a drawing sheet, Fig. 3
Head of the field: EC50 [nM] CRF2R
(§2) The patent's description of the figure: FIG. 3: Representative sequences from peptides according to the invention with an optimized stability profile, wherein K[sema] stands for K[gGlu-C(O)(CH2)14CH3]
(§3) First copying reader's note: Second half (positions 13-38, C-term and activity) of the first table; the rows follow the same order, so the four rows of Peptide Seq. 1 are Patent Sequence N° 130, 171, 172 and 173.
Where the first naming reader finds the target: head: EC50 [nM] CRF2R

[2] = target: T2, hCRF1 (Homo sapiens, UniProt P34998); experiment: hCRF1 EC50 [nM]
T2 construct: host or cells: CHO-K1 clone 2
Excerpt: as §1
Head of the field: hCRF1 EC50 [nM]
as §2, §3
Where the first naming reader finds the target: head: hCRF1 EC50 [nM]

[3] = target: T3, human CRF2α receptor (Homo sapiens, UniProt Q13324); experiment: cAMP agonism at human CRF2 α receptor in TeloHEAC cells (Example 7); format: cell-based; conditions: cAMP HTRF, TeloHEAC cells stably expressing human CRF2 α
T3 construct: expressed in transfected cells; host or cells: TeloHEAC
T3 sequence (Q13324 1-411): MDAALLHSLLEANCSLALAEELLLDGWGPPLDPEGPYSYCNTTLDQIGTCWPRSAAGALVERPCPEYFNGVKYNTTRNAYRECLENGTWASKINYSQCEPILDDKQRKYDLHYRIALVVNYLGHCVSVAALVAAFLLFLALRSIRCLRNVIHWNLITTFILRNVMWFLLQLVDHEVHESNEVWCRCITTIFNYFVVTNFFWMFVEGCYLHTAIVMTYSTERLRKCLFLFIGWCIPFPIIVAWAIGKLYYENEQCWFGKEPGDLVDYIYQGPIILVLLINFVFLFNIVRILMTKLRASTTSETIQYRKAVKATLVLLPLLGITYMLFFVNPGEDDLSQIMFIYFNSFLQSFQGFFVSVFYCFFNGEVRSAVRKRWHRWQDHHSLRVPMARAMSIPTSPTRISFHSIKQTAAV
Method in brief: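 Thawed frozen stably transfected cells in HBSS/20 mM HEPES (0% or 0.1% HSA) plus 2 mM IBMX were exposed to compound at 2000 cells/well for 30 min at room temperature. Intracellular cAMP was read by HTRF (665/620 nm ratio) after 1 h lysis; EC50 was derived with 1000 nM urocortin 2 set as 100%.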

[4] = tested on: rat CRF2R α receptor; experiment: cAMP agonism at rat CRF2R α receptor in A7R5 rat aortic smooth muscle cells (Example 8); format: cell-based; conditions: cAMP HTRF, A7R5 rat aortic smooth muscle cell line, 0% HSA
Method in brief: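 Thawed cryopreserved A7R5 cells in HBSS/20 mM HEPES (0 or 0.1% HSA) with 2 mM IBMX, 2000 cells/well, were exposed to compound for 30 min at room temperature. cAMP was read by HTRF (665/620 nm ratio) after 1 h with lysis reagents. Activity was normalised to 1000 nM urocortin 2 as 100%, and EC50 was taken as the concentration giving 50% of maximal activation.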

[5] = target: T4, CRF1R receptor (Homo sapiens, UniProt P34998); experiment: cAMP activity at anti-target CRF1R, CRF1R-overexpression CHO cell line (Example 9); format: cell-based; conditions: CRF1R-overexpression CHO cell line; for EC50: 0% HSA; for Emax: read-out: Emax (%)
T4 construct: host or cells: CHO-K1 clone 2
T4 sequence (P34998 24-415): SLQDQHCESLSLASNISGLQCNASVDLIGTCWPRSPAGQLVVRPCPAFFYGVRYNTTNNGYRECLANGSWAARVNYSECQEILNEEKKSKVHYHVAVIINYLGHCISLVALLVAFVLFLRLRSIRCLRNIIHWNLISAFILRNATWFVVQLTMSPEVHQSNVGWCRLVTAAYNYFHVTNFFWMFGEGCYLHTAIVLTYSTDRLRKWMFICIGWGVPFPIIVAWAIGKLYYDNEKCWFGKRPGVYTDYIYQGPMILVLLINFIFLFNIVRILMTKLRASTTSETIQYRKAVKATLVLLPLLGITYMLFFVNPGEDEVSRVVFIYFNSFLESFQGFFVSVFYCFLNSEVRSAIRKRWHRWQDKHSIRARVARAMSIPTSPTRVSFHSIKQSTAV
Method in brief: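 cAMP accumulation was read by HTRF after 30 min at room temperature of compound treatment. Cells were cryopreserved CHO cells overexpressing CRF1R, plated at 2000/well in IBMX (2 mM)-containing HBSS/HEPES buffer with 0 or 0.1% HSA. Activity was normalized to 1000 nM UCN2 as 100%.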

[6] = target: T5, endogenous human CRF2 (Homo sapiens, UniProt Q13324); experiment: cAMP agonist effect in NCI-H82 cells expressing endogenous human CRF2 (Example 10); format: cell-based; conditions: cAMP HTRF, 5 min activation
T5 construct: endogenous in cells; host or cells: NCI-H82
T5 sequence (Q13324 1-411): T3 sequence (Q13324 1-411)
Protocol: The agonist effect of the compounds was assessed in NCI-H82 cells expressing endogenous human CRF2.
NCI-H82 cells in suspension were plated in low-volume 384-well plates at a density of 30000 cells/well in 5 μl of test medium (RPMI+1 mM IBMX). The plates were briefly centrifuged at 800 rpm to allow the cell suspension to move to the bottom of the wells and then incubated for 2 hours at 37° C. in 5% CO2. 5 μl of test compounds at appropriate concentrations (10-11 to 3×10-7) diluted in test medium were then transferred in 384 wells plates. After 5 min of activation, the reaction was stopped by addition of HTRF revelation reagents with a multidrop dispenser. The two reagents were 5 μl/well of Anti-CAMP-cryptate diluted 20-fold in conjugate and lysis buffer and 5 μl/well of cAMP-D2 diluted 20-fold in conjugate and lysis buffer. After one-hour incubation at room temperature in the dark, the plates were read on a Clariostar apparatus.

[7] = Solubility in buffer systems by UPLC-UV (Example 13); format: physicochemical
Method in brief: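 The supernatant was diluted 1:10 and quantified by UPLC-UV peak area against a reference standard curve, correcting for sequence-based extinction coefficients.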

[8] = Chemical stability, purity loss by UPLC-UV after 28 days at 40° C. vs 5° C., pH 4.5 acetate buffer (Example 12); format: physicochemical; conditions: 28 days 40° C. vs 5° C.; pH 4.5, 20 mM acetate buffer; 300 μM
Method in brief: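 300 μM compound (purity-corrected) in 20 mM acetate buffer, pH 4.5, stored 28 days at 5 and 40° C. Purity by UPLC-UV as compound peak area over total peak area. Value is the purity difference between 5° C. and 40° C. samples, relative to the 5° C. purity, in percent.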

[9] = Physical stability, Thioflavin T fibrillation assay (Example 14); format: physicochemical; conditions: Buffer B: 100 mM acetate buffer, pH 4.5, 2.7 mg/ml m-cresol; 3 mg/ml; 37° C. shaking
Method in brief: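 Compounds at 3 mg/ml final in buffer were stressed at 37° C by repeated cycles of 10 s shaking at 960 rpm and 50 s rest. ThT fluorescence was read every 20 minutes in eight replicates, with fluorescence increase and lag time indicating fibrillation tendency.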

[10] = 0% HSA, read-out: EC50 [nM], 0% HSA
[11] = 0.1% HSA, read-out: EC50 [nM], 0.1% HSA

Compound	EC50 [1] [nM]	EC50 [2] [nM]	EC50 [3, 10] [nM]	EC50 [3, 11] [nM]	EC50 [4] [nM]	EC50 [5] [nM]	Emax [5] [%]	EC50 [6] [nM]	solubility at 1 h ([7]; pH 4.5, Solubility in Buffer B [mg/ml]) [mg/mL]	solubility at 1 h ([7]; pH 7.4, Solubility in Buffer C [mg/ml]) [mg/mL]	Relative purity loss [%] [8] [%]	Increase in FI (fluorescence intensity) [9]	Lag time [9] [h]
CCCCCCCCCCCCCCCC(=O)N[C@@H](CCC(=O)NCCCC[C@H](NC(=O)[C@@H](NC(=O)[C@H](CCCCN)NC(=O)[C@@H](NC(=O)[C@@H]1CCCN1C(=O)[C@@H](NC(=O)[C@H](CC(=O)O)NC(=O)[C@H](CC(C)C)NC(=O)[C@H](CO)NC(=O)[C@H](CC(C)C)NC(=O)[C@@H](NC(=O)[C@@H](N)Cc1ccccc1)[C@@H](C)O)C(C)C)[C@@H](C)O)[C@@H](C)CC)C(=O)N[C@@H](CCC(N)=O)C(=O)N[C@@H](CCCCN)C(=O)N[C@@H](CC(C)C)C(=O)N[C@@H](CC(C)C)C(=O)N[C@@H](CCCCN)C(=O)N[C@@H](CCC(N)=O)C(=O)N[C@@H](CCC(=O)O)C(=O)N[C@@H](CCCCN)C(=O)N[C@@H](CCC(N)=O)C(=O)N[C@@H](CCCCN)C(=O)N[C@@H](CCCCN)C(=O)N[C@@H](CCC(N)=O)C(=O)N[C@@H](CCCNC(=N)N)C(=O)N[C@@H](CCC(N)=O)C(=O)N[C@@H](CCCCN)C(=O)N[C@@H](C)C(=O)N[C@@H](CCCCN)C(=O)N[C@H](C(=O)N[C@@H](CC(N)=O)C(=O)N[C@@H](CCCCN)C(=O)N[C@@H](CCC(N)=O)C(=O)N[C@H](C(=O)N[C@@H](CC(C)C)C(=O)N[C@@H](CCC(=O)O)C(=O)N[C@@H](CCC(N)=O)C(=O)N[C@H](C(N)=O)C(C)C)[C@@H](C)CC)[C@@H](C)O)C(=O)O [SEQ ID NO: 10] (H-FTLSLDVPTKIK([γGlu-Palmitoyl])QKLLKQEKQKKQRQKAKTNKQILEQV-NH2)	0.07	91											
CC[C@H](C)[C@H](N)C(=O)N[C@H](C(=O)N[C@@H](CC(C)C)C(=O)N[C@@H](CO)C(=O)N[C@@H](CC(C)C)C(=O)N[C@@H](CC(=O)O)C(=O)N[C@H](C(=O)N1CCC[C@H]1C(=O)N[C@H](C(=O)N[C@@H](CCCCN)C(=O)N[C@@H](CC(C)C)C(=O)N[C@@H](CCCCNC(=O)COCCOCCNC(=O)COCCOCCNC(=O)CC[C@H](NC(=O)CCCCCCCCCCCCCCCCCCC(=O)O)C(=O)O)C(=O)N[C@@H](CCC(N)=O)C(=O)N[C@H](C(=O)N[C@@H](CC(C)C)C(=O)N[C@@H](CC(C)C)C(=O)N[C@@H](CCC(=O)O)C(=O)N[C@@H](CCC(N)=O)C(=O)N[C@@H](CCC(=O)O)C(=O)N[C@@H](CCCCN)C(=O)N[C@@H](CCC(N)=O)C(=O)N[C@@H](CCCCN)C(=O)NC(C)(C)C(=O)N[C@@H](CCC(N)=O)C(=O)N[C@@H](CCCNC(=N)N)C(=O)N[C@@H](CCC(=O)O)C(=O)N[C@@H](CCC(N)=O)C(=O)N[C@@H](C)C(=O)N[C@@H](CCC(=O)O)C(=O)N[C@H](C(=O)N[C@@H](CC(N)=O)C(=O)N[C@@H](CCCCN)C(=O)N[C@@H](CCC(N)=O)C(=O)N[C@H](C(=O)N[C@@H](CC(C)C)C(=O)N[C@@H](C)C(=O)N[C@@H](CCC(N)=O)C(=O)N[C@H](C(N)=O)C(C)C)[C@@H](C)CC)[C@@H](C)O)[C@@H](C)CC)[C@@H](C)CC)C(C)C)C(C)C [compound 81] (H-IVLSLDVPIKLK([AEEA-AEEA-γGlu-C20 diacid])QILLEQEKQK[Aib]QREQAETNKQILAQV-NH2)			0.14	18.5	0.94	> 1000	23.3	110	20.4 (≈ 3.97 mM)	> 9.6			
CC[C@H](C)[C@H](N)C(=O)N[C@H](C(=O)N[C@@H](CC(C)C)C(=O)N[C@@H](CO)C(=O)N[C@@H](CC(C)C)C(=O)N[C@@H](CC(=O)O)C(=O)N[C@@H](C(=O)N1CCC[C@H]1C(=O)N[C@H](C(=O)N[C@@H](CCCCN)C(=O)N[C@@H](CC(C)C)C(=O)N[C@@H](CCCCNC(=O)COCCOCCNC(=O)COCCOCCNC(=O)CC[C@H](NC(=O)CCCCCCCCCCCCCCCCC(=O)O)C(=O)O)C(=O)N[C@@H](CCC(N)=O)C(=O)N[C@H](C(=O)N[C@@H](CC(C)C)C(=O)N[C@@H](CC(C)C)C(=O)N[C@@H](CCCCN)C(=O)N[C@@H](CCC(N)=O)C(=O)N[C@@H](CCC(=O)O)C(=O)N[C@@H](CCCNC(=N)N)C(=O)N[C@@H](CCC(N)=O)C(=O)N[C@@H](CCCCN)C(=O)NC(C)(C)C(=O)N[C@@H](CCC(N)=O)C(=O)N[C@@H](CCCNC(=N)N)C(=O)N[C@@H](CCC(=O)O)C(=O)N[C@@H](CCC(N)=O)C(=O)N[C@@H](C)C(=O)N[C@@H](CCC(=O)O)C(=O)N[C@@H](CCCCN)C(=O)N[C@@H](CC(N)=O)C(=O)N[C@@H](CCCCN)C(=O)N[C@@H](CCC(N)=O)C(=O)N[C@H](C(=O)N[C@@H](CC(C)C)C(=O)N[C@@H](C)C(=O)N[C@@H](CCC(N)=O)C(=O)N[C@H](C(N)=O)C(C)C)[C@@H](C)CC)[C@@H](C)CC)[C@@H](C)CC)C(C)C)C(C)C [compound 130] (H-IVLSLD[dV]PIKLK([AEEA-AEEA-γGlu-C18 diacid])QILLKQERQK[Aib]QREQAEKNKQILAQV-NH2; N-terminus assumed)			0.05	2.11	0.13	> 1000	20.3	4.3			4.25	No	>45
